Values of other authors in patent US20110190221A1, “MODULATION AND REPLETION/ENHANCEMENT OF THE COMPLEMENT SYSTEM FOR TREATMENT OF TRAUMA” (APELLIS AG, priority 2008, published 2011).

Test system: complement activation
Details: relative to compstatin amidated at the C-terminus; based on published data (WO2004/026328, Mallik 2005, Katragadda 2006)

Sequence: ICVVQDWGHHRCT [Ac-compstatin]
- Activity over compstatin: 3 × more
